Here are results for 23 molecules from patent US12018093B2, “Hemiasterlin derivatives and antibody-drug conjugates including same” (priority 2017, dated 2024).

pIC50: −log10 of the molar value. *1 amine or outer side, *2 acyl side, *3 side chain or, on linkers, in order; H or OH if unused. Where a SMILES comes first, the peptide text is derived from it. [ ]: non-standard residue; d: D form. NMeTrp(1,β,β-Me3) = CN[C@H](C(=O)O)C(C)(C)c1cn(C)c2ccccc12; X1 = C/C(=C\[C@H](C(C)C)N(C)[*:1])C(=O)[*:2]; Tle = CC(C)(C)[C@H](N)C(=O)O Bounds are passed on as bounds.

One data set deals with Karpas-299 cells. In words: Cellular toxicity test (1), CellTiter-Glo, Karpas-299. The note with it: Homo sapiens, 96 h, cultured 4 days, cell viability. In kind it is cell-based. As to the method: SU-DHL-1 cells (American Type Culture Collection, hereinafter, ATCC) and Karpas-299 cells (European Collection of Authenticated Cell Cultures, hereinafter, ECACC), which are human lymphoma cell lines, were cultured in RPMI 1640 (GIBCO) containing 10% fetal bovine serum (MP Biomedicals) (hereinafter, referred to as the “culture medium” in this test). SU-DHL-1 cells and Karpas-299 cells were prepared to be 2×10^6 cells/mL in the culture medium, and were added to a 96 well microplate for cell culturing in an amount of 50 μL for each well. Compounds of Examples or hemiasterlin 4 times diluted with the culture medium in 8 stages were added to the microplate in an amount of 50 μL for each well. To wells to which the test substance was not added, the culture medium was added in an amount of 50 μL for each well. These were cultured at 37 degree under 5% CO2 for 4 days. After culturing, the microplate was taken out from the incubator, and was left at rest at room temperature for 10 minutes. To each well, 50 μL of CellTiter-Glo Luminescent Cell Viability Assay (Promega) was added, and the resultant mixture was stirred. This mixture was incubated at a dark place for 20 minutes. Using a microplate luminometer, luminescence at each well was measured, thereby calculating the cell viability for each concentration of the test substance. From the cell viability, the IC50 value of the test substance was determined.
The IC50 value was calculated by the following formula: IC50(nM)=antilog(LOG10(a/b)×(e−d)/(c−d)+LOG10b) • a: concentration a of test substance • b: concentration b of test substance • c: cell viability upon adding test substance with concentration a • d: cell viability upon adding test substance with concentration b • e: intermediate value between maximum and minimum among cell viabilities upon • adding test substances with different concentrations (a and b are concentrations crossing the cell viability e, and a>b is indicated).
The cell viability at each concentration was calculated by the following formula: Cell Viability (%)=a′/b′×100 • a′: mean value of luminescence amount of wells to which test substance was added (n=6) • b′: mean value of luminescence amount of wells to which test substance was not added (n=6) • (n represents the number of evaluations performed per test substance concentration).

The next data set has as its target porcine tubulin (Sus scrofa, UniProt P02550+P02554). Kind of data set: Activity for inhibiting microtubule polymerization using porcine tubulins (2), microtubule polymerization rate. The note with it: 60 minutes after assay initiation; relative to wells without compound; lower = stronger inhibition.
A short description of a further data set: in vitro. The note with it: PAMPA, pH 7.4. How it is done: By the parallel artificial membrane permeability assay (PAMPA), the membrane permeability of compounds of Examples was examined as follows: To the donor plate, System solution (pION inc.) and GIT Lipid-0 (pION inc.) were added in an amount of 200 μL and 4 μL for each well, respectively. To the acceptor plate, Acceptor Sink Buffer (pION inc.) was added in an amount of 200 μL. Both plates were superposed and incubated at 37° C. for 4 hours, and then, UVs in the solutions on the side of acceptor and on the side of donor were measured with an UV plate reader (190 to 500 nm). Compounds with poor UV absorption were measured by LC-MS. The permeability coefficient Pe (10^−6 cm/sec) of the drug was calculated by the following formula.
(The PAMPA barrier holds no transporters, so it reflects passive diffusion.)

porcine tubulin, sequence (P02554 whole entry): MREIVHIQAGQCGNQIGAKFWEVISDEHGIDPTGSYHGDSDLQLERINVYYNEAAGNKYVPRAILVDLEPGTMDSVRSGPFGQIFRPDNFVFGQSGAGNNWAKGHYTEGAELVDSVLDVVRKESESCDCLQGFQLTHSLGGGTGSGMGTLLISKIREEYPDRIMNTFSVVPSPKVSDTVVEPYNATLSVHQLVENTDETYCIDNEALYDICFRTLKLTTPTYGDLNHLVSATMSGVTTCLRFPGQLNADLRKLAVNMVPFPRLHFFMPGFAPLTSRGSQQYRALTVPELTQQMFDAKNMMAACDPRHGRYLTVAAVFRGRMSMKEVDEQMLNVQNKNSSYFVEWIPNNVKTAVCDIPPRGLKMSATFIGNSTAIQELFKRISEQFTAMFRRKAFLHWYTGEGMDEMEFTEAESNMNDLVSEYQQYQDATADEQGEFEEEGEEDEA
porcine tubulin, sequence (P02550 whole entry): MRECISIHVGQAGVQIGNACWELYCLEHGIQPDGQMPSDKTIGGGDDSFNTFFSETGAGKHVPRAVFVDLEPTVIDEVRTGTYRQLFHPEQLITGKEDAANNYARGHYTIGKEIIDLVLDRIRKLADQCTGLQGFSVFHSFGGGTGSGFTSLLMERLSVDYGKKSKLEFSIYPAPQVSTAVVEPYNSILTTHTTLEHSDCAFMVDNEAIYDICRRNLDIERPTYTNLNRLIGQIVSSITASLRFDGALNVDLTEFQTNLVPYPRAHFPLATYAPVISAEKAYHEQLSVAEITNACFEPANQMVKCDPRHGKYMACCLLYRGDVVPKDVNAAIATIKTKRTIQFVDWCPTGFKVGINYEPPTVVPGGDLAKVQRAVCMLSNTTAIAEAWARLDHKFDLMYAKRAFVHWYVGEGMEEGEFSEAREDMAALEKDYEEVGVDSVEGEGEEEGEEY

With `CCOC(=O)CC[C@@H](NC(=O)/C(C)=C/[C@H](C(C)C)N(C)C(=O)[C@@H](NC(=O)[C@@H](N)C(C)(C)c1cn(C)c2ccccc12)C(C)(C)C)C(=O)OCC` [Example 1, (2R)-2-{[(2E,4S)-4-{[(2S)-2-{[(2S)-2-Amino-3-methyl-3-(1-methyl-1H-indol-3-yl)butanoyl]amino}-3,3-dimethylbutanoyl](methyl)amino}-2,5-dimethylhex-2-enoyl]amino}pentane diethyl diester], the pIC50 with Karpas-299 cells is 7.03.
For the molecule `C/C(=C\[C@H](C(C)C)N(C)C(=O)[C@@H](NC(=O)[C@@H](N)C(C)(C)c1cn(C)c2ccccc12)C(C)(C)C)C(=O)N[C@H](CCC(=O)O)C(=O)O` [Example 2, β,β,1-Trimethyl-L-tryptophyl-N-[(3S,4E)-6-{[(1R)-1,3-dicarboxypropyl]amino}-2,5-dimethyl-6-oxohex-4-en-3-yl]-N,3-dimethyl-L-valinamide], the “Microtubule polymerization rate (%)” value on porcine tubulin is 4%. The molecule further had a negative logarithm of the IC50 (pIC50) in the data set on Karpas-299 cells of under 6.90. The same molecule registered a Papp in the data set “in vitro” of 0.2 ×10⁻⁶ cm/s.
With `CN[C@H](C(=O)N[C@H](C(=O)N(C)[C@H](/C=C(\C)C(=O)N[C@@H](CC(=O)O)C(=O)N[C@@H](CC(=O)O)C(=O)N[C@@H](CC(=O)O)C(=O)N[C@@H](CC(=O)O)C(=O)N[C@@H](CC(=O)O)C(=O)O)C(C)C)C(C)(C)C)C(C)(C)c1cn(C)c2ccccc12` [Example 3, N-{(2E,4S)-2,5-Dimethyl-4-[methyl(N,β,β,1-tetramethyl-L-tryptophyl-3-methyl-L-valyl)amino]hex-2-enoyl}-L-α-aspartyl-L-t-aspartyl-L-α-aspartyl-L-α-aspartyl-L-α-aspartic acid] (H-[NMeTrp(1,β,β-Me3)][Tle][X1]DDDDD-OH), the “Microtubule polymerization rate (%)” value on porcine tubulin is reported as 3%. In addition, the negative logarithm of the IC50 (pIC50) in the data set on Karpas-299 cells was under 5.30. This molecule also had an apparent permeability coefficient (Papp) at 4 h in “in vitro” of under 0.1 ×10⁻⁶ cm/s.
With `CN[C@H](C(=O)N[C@H](C(=O)N(C)[C@H](/C=C(\C)C(=O)N[C@H](CCCCN)C(=O)O)C(C)C)C(C)(C)C)C(C)(C)c1cn(C)c2ccccc12` [Example 5], the pIC50 with Karpas-299 cells is 7.06.
In the case of `CN[C@H](C(=O)N[C@H](C(=O)N(C)[C@H](/C=C(\C)C(=O)N[C@@H](CCC(=O)O)C(=O)O)C(C)C)C(C)(C)C)C(C)(C)c1cn(C)c2ccccc12` [Example 6], the negative logarithm of the IC50 (pIC50) in the data set on Karpas-299 cells is 7.47. The molecule further gave a Papp in the data set “in vitro” of under 0.1 ×10⁻⁶ cm/s.
Turning to `CCOC(=O)[C@H](CCC(=O)O)NC(=O)/C(C)=C/[C@H](C(C)C)N(C)C(=O)[C@@H](NC(=O)[C@@H](NC)C(C)(C)c1cn(C)c2ccccc12)C(C)(C)C` [Example 13], the “Microtubule polymerization rate (%)” value on porcine tubulin is reported as 21%.
As for `CN[C@H](C(=O)N[C@H](C(=O)N(C)[C@H](/C=C(\C)C(=O)N[C@@H](CCC(=O)N[C@@H](CCC(=O)O)C(=O)O)C(=O)N[C@@H](CCC(=O)O)C(=O)O)C(C)C)C(C)(C)C)C(C)(C)c1cn(C)c2ccccc12` [Example 47] (H-[NMeTrp(1,β,β-Me3)][Tle][X1]E(Glu)E-OH), on porcine tubulin, the “Microtubule polymerization rate (%)” value came to 3%. Moreover, the pIC50 in the data set on Karpas-299 cells was 6.11. The molecule further registered a Papp in the data set “in vitro” of under 0.1 ×10⁻⁶ cm/s.
The molecule `CN[C@H](C(=O)N[C@H](C(=O)N(C)[C@H](/C=C(\C)C(=O)N[C@H](CCC(=O)N[C@@H](CCCCN)C(=O)O)C(=O)O)C(C)C)C(C)(C)C)C(C)(C)c1cn(C)c2ccc(F)cc12` [Example 52] showed a negative logarithm of the IC50 (pIC50) in the data set on Karpas-299 cells of 6.64. For the same molecule, in the data set “in vitro”, the apparent permeability coefficient (Papp) is under 0.1 ×10⁻⁶ cm/s.
In the data set with Karpas-299 cells, `CN[C@H](C(=O)N[C@H](C(=O)N(C)[C@H](/C=C(\C)C(=O)N[C@@H](CS(=O)(=O)O)C(=O)O)C(C)C)C(C)(C)C)C(C)(C)c1ccccc1` [Example 53] had a pIC50 of 6.91. This molecule displayed a Papp in “in vitro” of under 0.1 ×10⁻⁶ cm/s.
Regarding `CN[C@H](C(=O)N[C@H](C(=O)N(C)[C@H](/C=C(\C)C(=O)N[C@@H](COP(=O)(O)O)C(=O)O)C(C)C)C(C)(C)C)C(C)(C)c1ccccc1` [Example 54], in the data set on Karpas-299 cells, the pIC50 was 7.65.
With `CN[C@H](C(=O)N[C@H](C(=O)N(C)[C@H](/C=C(\C)C(=O)N[C@H](CCC(=O)O)C(=O)O)C(C)C)C(C)(C)C)C(C)(C)c1cccc(C(F)(F)F)c1` [Example 55], the “Microtubule polymerization rate (%)” value at porcine tubulin was 16%. This molecule also gave a negative-log IC50 (pIC50) in the data set with Karpas-299 cells of 7.46. In addition, the Papp in “in vitro” is under 0.1 ×10⁻⁶ cm/s.
In the same order, the values of `CN[C@H](C(=O)N[C@H](C(=O)N(C)[C@H](/C=C(\C)C(=O)N[C@H](CCC(=O)O)C(=O)O)C(C)C)C(C)(C)C)C(C)(C)c1cccc(F)c1` [Example 56] are 7%, 6.56 and 0.7 ×10⁻⁶ cm/s.
In the same order, the values of `C/C(=C\[C@H](C(C)C)N(C)C(=O)[C@@H](NC(=O)[C@H]1CCCCN1C(C)C)C(C)(C)C)C(=O)N[C@H](CCC(=O)O)C(=O)O` [Example 57] are 5%, under 6.00 and under 0.1 ×10⁻⁶ cm/s.
Take `CN[C@H](C(=O)N[C@H](C(=O)N(C)[C@H](/C=C(\C)C(=O)N[C@H](CCC(=O)O)C(=O)O)C(C)C)C(C)(C)C)C(C)(C)C1CCCCC1` [Example 58]: on porcine tubulin, the “Microtubule polymerization rate (%)” value is on record as 5%. Further, the negative logarithm of the IC50 (pIC50) in the data set with Karpas-299 cells is under 6.00. The Papp in “in vitro” came out at 9 ×10⁻⁶ cm/s.
In the same order, the values of `CNC(C(=O)N[C@H](C(=O)N(C)[C@H](/C=C(\C)C(=O)N[C@H](CCC(=O)O)C(=O)O)C(C)C)C(C)(C)C)C(C)(C)c1ccc(O)cc1` (stereo partly shown) [Example 59] are 2%, 6.39 and 0.5 ×10⁻⁶ cm/s.
In the same order, the values of `CN[C@H](C(=O)N[C@H](C(=O)N(C)[C@H](/C=C(\C)C(=O)N[C@H](CCC(=O)O)C(=O)O)C(C)C)C(C)(C)C)C(C)(C)c1cccc(C#N)c1` [Example 60] are 6%, 6.39 and under 0.1 ×10⁻⁶ cm/s.
As for `CN[C@H](C(=O)N[C@H](C(=O)N(C)[C@H](/C=C(\C)C(=O)N[C@H](CCC(=O)O)C(=O)O)C(C)C)C(C)(C)C)C(C)(C)c1cc(C)cc(C)c1` [Example 62], the “Microtubule polymerization rate (%)” value on porcine tubulin came to 6%.
With `CN[C@H](C(=O)N[C@H](C(=O)N(C)[C@H](/C=C(\C)C(=O)N[C@H](CCC(=O)O)C(=O)O)C(C)C)C(C)(C)C)C(C)(C)c1ccc2ccccc2c1` [Example 64], the negative-log IC50 (pIC50) with Karpas-299 cells was 7.52.
Take `CN[C@@H](C(=O)N[C@H](C(=O)N(C)[C@H](/C=C(\C)C(=O)N[C@H](CCC(=O)O)C(=O)O)C(C)C)C(C)(C)C)C(C)(C)c1cccc(Br)c1` [Example 65]: the negative logarithm of the IC50 (pIC50) in the data set with Karpas-299 cells was under 6.00. Further, the apparent permeability (Papp) in the data set “in vitro” is under 0.1 ×10⁻⁶ cm/s.
In the case of `CN[C@H](C(=O)N[C@H](C(=O)N(C)[C@H](/C=C(\C)C(=O)N[C@H](CCC(=O)O)C(=O)O)C(C)C)C(C)(C)C)C(C)(C)c1ccc(C(=O)OC(C)(C)C)cc1` [Example 66], the “Microtubule polymerization rate (%)” value on porcine tubulin is given as 9%. Besides, the negative-log IC50 (pIC50) in the data set with Karpas-299 cells is under 6.00. Further, the apparent permeability (Papp) in “in vitro” was under 0.1 ×10⁻⁶ cm/s.
`CN[C@H](C(=O)N[C@H](C(=O)N(C)[C@H](/C=C(\C)C(=O)N[C@H](CCC(=O)O)C(=O)O)C(C)C)C(C)(C)C)C(C)(C)c1cccc(-c2ccccc2)c1` [Example 67]: the “Microtubule polymerization rate (%)” value at porcine tubulin is on record as 42%. The same molecule had a pIC50 in the data set on Karpas-299 cells of 6.83. In “in vitro”, this molecule showed an apparent permeability coefficient (Papp) of under 0.1 ×10⁻⁶ cm/s.
In the same order, the values of `CN[C@H](C(=O)N[C@H](C(=O)N(C)[C@H](/C=C(\C)C(=O)N[C@H](CCC(=O)O)C(=O)O)C(C)C)C(C)(C)C)C(C)(C)c1cccc(C)c1` [Example 68] are 4%, 7.58 and under 0.1 ×10⁻⁶ cm/s.
For the molecule `CNC(C(=O)N[C@H](C(=O)N(C)[C@H](/C=C(\C)C(=O)N[C@H](CCC(=O)O)C(=O)O)C(C)C)C(C)(C)C)C(C)(C)c1ccc(C(=O)O)cc1` (stereo partly shown) [Example 70], the pIC50 in the data set on Karpas-299 cells was 6.14. This molecule also came in with a Papp in “in vitro” of 0.9 ×10⁻⁶ cm/s.

For orientation: pIC50 means the IC50 on a negative log10 scale, so that one unit is a factor of ten. The term Papp denotes a coefficient for how fast a substance crosses the barrier.
